Patent EP0252983B1, “SALTS OF N-(VINYLOXIETHYL)DITHIOCARBAMIC ACID, METHOD OF OBTAINING THEREOF AND […] ON THEM” (priority 1985, dated 1987)
Where two headings read alike, the source gives them in different places.

Key:
Aspergillus niger = test: Mycelial growth inhibition on agar (contact activity); type: cell-based; conditions: Aspergillus niger, 120 h; for inhibition of growth at 0.003 %: Wirkstoffkonzentration 0,003 %
Psoroptes cuniculi = test: Acaricidal activity on isolated mites; type: in vivo
Description: Die akarizide Aktivität der Stoffe wird an isolierten Milben Psoroptes cuniculi als Erreger der Psoroptesräude bei Kaninchen geprüft. Von frischen Verkrustungen von Kaninchen mit Psoroptesräude, werden zu diesem Zweck 50 Milbenexemplare (Larven, Nymphen, Imago) gewählt und in Petri-Schalen auf ein Filterpapierblatt übertragen. Dann bringt man auf Milben und die ganze Blattoberfläche 1,5 ml zu prüfende wäßrige Stofflösung in destilliertem Wasser auf. Die Schale wird mit Deckel verschlossen und in einen Thermostat bei 30 °C und Feuchtegehalt von 90 % angeordnet. Der Wirkstoff wird als wäßrige Lösung mit einer zwischen 0,0039 und 4 % liegenden Konzentration genommen. Als Vergleichsmuster dient gleichzeitig eine wäßrige Lösung von Chlorophos. Milben werden im Kontrollversuch (Kontrolle auf Lebensfähigkeit)mit 1,5 ml physiologischer Lösung behandelt und in einen anderen Thermostat unter gleichen Temperatur- und Feuchtigkeitsbedingungen aufgestellt.
Nach 1, 2, 4, 6 Stunden und alle 24 Stunden betrachtet man die Milben im Mikroskop und zählt die toten Milben. Aufgrund der Milbenvernichtung durch einen 24-stündigen Kontakt mit dem Wirkstoff ermittelt man die LK-50 Werte. Die Versuche werden 5mal wiederholt. Arithmetische Mittelwerte gibt Tabelle 14 an.

Verticillium dahliae = test: Soil fungicide test (fungal discs in treated soil); type: cell-based; parameters: key: Das Vorhandensein (+); das Fehlen (-) des wachsenden Myzels um die Scheibe herum; conditions: 160 mg/kg Boden
Description: (§1) Eine 50 g schwere Bodenprobe bringt man in ein Glasgefäß ein, sterilisiert innerhalb von 2 Stunden unter einem Druck von 2 atm, gibt dann dem Boden das Präparat als wäßrige Lösung ausgehend von 160 mg/kg zu, wonach in den Boden Scheiben mit Kulturen folgender Pilze Fusarium oxysporum, Verticillium dahliae, Rhizoctonia solani, Pythium ultimum untergebracht werden.
(§2) Nach 24 und 48 Stunden werden die Scheiben in fließendem Wasser, dann in sterilem Wasser gewaschen, auf sterilem Filterpapier getrocknet und auf eine reine Agarplatte gelegt. Das Vorhandensein (+) oder das Fehlen (-) des wachsenden Myzels um die Scheibe herum wies auf die Wirksamkeit des Präparats. Als Vergleichsmuster diente dabei Karbathion. Die Prüfergebnisse sind in der Tabelle 5 dargestellt.

Rhizoctonia solani = test: Soil fungicide test (fungal discs in treated soil); type: cell-based; parameters: key: Das Vorhandensein (+); das Fehlen (-) des wachsenden Myzels um die Scheibe herum; conditions: 160 mg/kg Boden
Description: as §1, §2

Pythium ultimum = test: Soil fungicide test (fungal discs in treated soil); type: cell-based; parameters: key: Das Vorhandensein (+); das Fehlen (-) des wachsenden Myzels um die Scheibe herum; conditions: 160 mg/kg Boden
Description: as §1, §2

Fusarium oxysporum = test: Soil fungicide test (fungal discs in treated soil); type: cell-based; parameters: key: Das Vorhandensein (+); das Fehlen (-) des wachsenden Myzels um die Scheibe herum; conditions: 160 mg/kg Boden
Description: as §1, §2

Acremonium cowum = test: Mycelial growth inhibition on agar (contact activity); type: cell-based; conditions: 120 h, Würzeagar, read-out: Myzelhemmung in %
Walrotiela subiculesa = test: as above; type: cell-based; conditions: 120 h, Würzeagar, read-out: Myzelhemmung in %
Penicillium chrysogenum = test: as above; type: cell-based; conditions: Würzeagar
Acremonium charticola = test: as above; type: cell-based; conditions: Acremonium charticola, 120 h, Würzeagar, read-out: Myzelhemmung in %
[1] = tested on: Cladosporium cladosporioides; test: as above; type: cell-based; conditions: Cladosporium cladosporioides, 120 h, Würzeagar, read-out: Myzelhemmung in %
Cladosporium resinae = test: as above; type: cell-based; conditions: Amorphotheca resinae, 120 h, Würzeagar, read-out: Myzelhemmung in %
Oidium Sp. = test: as above; type: cell-based; conditions: Würzeagar
Penicillium charlesii = test: as above; type: cell-based; conditions: Penicillium charlesii, 120 h, Würzeagar, read-out: Myzelhemmung in %
Geotrichum candidum Link = test: as above; type: cell-based; conditions: Würzeagar

In the case of C=COCCNC(=S)S [Kalium-N-(vinyloxyäthyl)dithiocarbamat], the inhibition of growth at 0.01 % (Aspergillus niger; Wirkstoffkonzentration 0,01 %, Kartoffel-Glukose-Nährmedium, read-out: Myzelhemmung in %) is reported as 100%, the inhibition of growth at 0.003 % (Aspergillus niger; Kartoffel-Glukose-Nährmedium, read-out: Myzelhemmung in %) is reported as 100% and the inhibition of growth at 0.003 % (Aspergillus niger; Tabelle 3, read-out: Mycelhemmung, in %) is reported as 100%. For the same compound, the LK-50 % (Psoroptes cuniculi; 24-stündiger Kontakt mit dem Wirkstoff) was 0,00208%, the “Vernichtung von 100 % der Milben nach Stunden” value (Psoroptes cuniculi; Konzentration 0,0039 %) was 48 Stunden and the “Vernichtung von 100 % der Milben nach Stunden” value (Psoroptes cuniculi; Konzentration 0,0078 %) was 24 Stunden. For the same compound, the “Vernichtung von 100 % der Milben nach Stunden” value (Psoroptes cuniculi; Konzentration 0,0625 %) was 6 Stunden, the “Vernichtung von 100 % der Milben nach Stunden” value (Psoroptes cuniculi; Konzentration 0,125 bis 0,5 %) was 4 Stunden and the “selektive Toxizität gegen Räudemilben, dem Chlorophos überlegen” value (Psoroptes cuniculi; gegenüber Chlorophos) was roughly 400 mal. The “wachsendes Myzel um die Scheibe” value (Verticillium dahliae; Haltedauer 24 Stunden) was “-”, the “wachsendes Myzel um die Scheibe” value (Verticillium dahliae; Haltedauer 48 Stunden) was “-” and the “wachsendes Myzel um die Scheibe” value (Rhizoctonia solani; Haltedauer 24 Stunden) was “-”. For the same compound, the “wachsendes Myzel um die Scheibe” value (Rhizoctonia solani; Haltedauer 48 Stunden) was “-”, the “wachsendes Myzel um die Scheibe” value (Pythium ultimum; Haltedauer 24 Stunden) was “-” and the “wachsendes Myzel um die Scheibe” value (Pythium ultimum; Haltedauer 48 Stunden) was “-”. The “wachsendes Myzel um die Scheibe” value (Fusarium oxysporum; Haltedauer 24 Stunden) was “-”, the “wachsendes Myzel um die Scheibe” value (Fusarium oxysporum; Haltedauer 48 Stunden) was “-” and the inhibition of growth at 0.0015 % (Acremonium cowum; Präparatkonzentration 0,0015 %) was 100%. For the same compound, the inhibition of growth at 0.012 % (Acremonium cowum; Präparatkonzentration 0,012 %) was 100%, the inhibition of growth at 0.0015 % (Walrotiela subiculesa; Präparatkonzentration 0,0015 %) was 100% and the inhibition of growth at 0.003 % (Walrotiela subiculesa; Präparatkonzentration 0,003 %) was 100%. It also gave an inhibition of growth at 0.006 % (Walrotiela subiculesa; Präparatkonzentration 0,006 %) of 100%, an inhibition of growth at 0.012 % (Walrotiela subiculesa; Präparatkonzentration 0,012 %) of 100% and an inhibition of growth at 0.003 % (Penicillium chrysogenum; Penicillium chrysogenum, 120 h, Präparatkonzentration 0,003 %, read-out: Myzelhemmung in %) of 26%. For the same compound, the inhibition of growth at 0.006 % (Penicillium chrysogenum; Penicillium chrysogenum, 120 h, Präparatkonzentration 0,006 %, read-out: Myzelhemmung in %) was 93%, the inhibition of growth at 0.012 % (Penicillium chrysogenum; Penicillium chrysogenum, 120 h, Präparatkonzentration 0,012 %, read-out: Myzelhemmung in %) was 100% and the Myzelhemmung in % (Penicillium chrysogenum; Präparatkonzentration 0,0015 %) was 15%. The inhibition of growth at 0.003 % (Acremonium charticola; Präparatkonzentration 0,003 %) was 100%, the inhibition of growth at 0.006 % (Acremonium charticola; Präparatkonzentration 0,006 %) was 100% and the inhibition of growth at 0.012 % (Acremonium charticola; Präparatkonzentration 0,012 %) was 100%. It also gave an inhibition of growth at 0.0015 % ([1]; Präparatkonzentration 0,0015 %) of 100%, an inhibition of growth at 0.003 % ([1]; Präparatkonzentration 0,003 %) of 100% and an inhibition of growth at 0.012 % ([1]; Präparatkonzentration 0,012 %) of 100%. The inhibition of growth at 0.0015 % (Cladosporium resinae; Präparatkonzentration 0,0015 %) was 100%, the inhibition of growth at 0.003 % (Cladosporium resinae; Präparatkonzentration 0,003 %) was 100% and the inhibition of growth at 0.006 % (Cladosporium resinae; Präparatkonzentration 0,006 %) was 100%. It also gave an inhibition of growth at 0.012 % (Cladosporium resinae; Präparatkonzentration 0,012 %) of 100%, an inhibition of growth at 0.003 % (Oidium Sp.; 120 h, Präparatkonzentration 0,003 %, read-out: Myzelhemmung in %) of 100% and an inhibition of growth at 0.006 % (Oidium Sp.; 120 h, Präparatkonzentration 0,006 %, read-out: Myzelhemmung in %) of 100%. For the same compound, the inhibition of growth at 0.012 % (Oidium Sp.; 120 h, Präparatkonzentration 0,012 %, read-out: Myzelhemmung in %) was 100%, the Myzelhemmung in % (Oidium Sp.; Präparatkonzentration 0,0015 %) was 96% and the inhibition of growth at 0.0015 % (Penicillium charlesii; Präparatkonzentration 0,0015 %) was 30%. The inhibition of growth at 0.003 % (Penicillium charlesii; Präparatkonzentration 0,003 %) was 55%, the inhibition of growth at 0.006 % (Penicillium charlesii; Präparatkonzentration 0,006 %) was 90% and the inhibition of growth at 0.012 % (Penicillium charlesii; Präparatkonzentration 0,012 %) was 100%. The inhibition of growth at 0.012 % (Geotrichum candidum Link; Geotrichum candidum, 120 h, Präparatkonzentration 0,012 %, read-out: Myzelhemmung in %) was 100%, the Myzelhemmung in % (Geotrichum candidum Link; Präparatkonzentration 0,0015 %) was 30% and the Myzelhemmung in % (Geotrichum candidum Link; Präparatkonzentration 0,003 %) was 100%. It also gave a Myzelhemmung in % (Geotrichum candidum Link; Präparatkonzentration 0,006 %) of 100%.
